This note sets out measurements from patent publication US7456165B2, “HCV NS5B inhibitors” (Bristol-Myers Squibb Company, priority 2006, dated 2008).

Where only a bound is given, the exact number is not on record here.

The target in experiment [1] is T1, HCV NS5B (Hepatitis C virus genotype 1b, UniProt Q9WMX2).
T1 construct: The protein was expressed with an 18 amino acid C-terminal truncation to enhance the solubility; made in house; host or cells: E. coli BL21(DE3)
The experiment in a line: HCV NS5B RdRp enzyme assay (preincubation protocol). Type of experiment: biochemical. Particulars: HCV NS5B RdRp genotype 1b. In a few lines:
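Preincubation format uses C-terminally truncated (Δ18) NS5B 1b from E. coli at 14 nM, added to compound before polyA template (0.2 nM), 3H-UTP (0.29 μM) and oligo-dT12 primer precaptured on SPA beads (20 nM). Buffer was 20 mM Hepes pH 7.5, 2% DMSO, run 4 h at 30° C. IC50 came from seven concentrations.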

The subject of experiment [2] is HCV replicon cells. The experiment in a line: HCV replicon FRET assay. Type of experiment: cell-based. Particulars: Hepatitis C virus. A digest of the protocol: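 Huh-7-derived HCV replicon cells (with or without Renilla luciferase reporter) incubated with titrated compound at 37° C. Lysed cells then read by NS3 cleavage of EDANS/DABCYL FRET peptide (20 μM, 340/490 nm, kinetic) or by Dual-Glo luciferase. EC50 is concentration giving 50% signal reduction after protease-inhibitor background subtraction; Alamar blue gives cytotoxicity.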
(A replicon is a self-replicating genome or part of one, used to study replication in cells.)

T1 sequence (Q9WMX2 2420-2992): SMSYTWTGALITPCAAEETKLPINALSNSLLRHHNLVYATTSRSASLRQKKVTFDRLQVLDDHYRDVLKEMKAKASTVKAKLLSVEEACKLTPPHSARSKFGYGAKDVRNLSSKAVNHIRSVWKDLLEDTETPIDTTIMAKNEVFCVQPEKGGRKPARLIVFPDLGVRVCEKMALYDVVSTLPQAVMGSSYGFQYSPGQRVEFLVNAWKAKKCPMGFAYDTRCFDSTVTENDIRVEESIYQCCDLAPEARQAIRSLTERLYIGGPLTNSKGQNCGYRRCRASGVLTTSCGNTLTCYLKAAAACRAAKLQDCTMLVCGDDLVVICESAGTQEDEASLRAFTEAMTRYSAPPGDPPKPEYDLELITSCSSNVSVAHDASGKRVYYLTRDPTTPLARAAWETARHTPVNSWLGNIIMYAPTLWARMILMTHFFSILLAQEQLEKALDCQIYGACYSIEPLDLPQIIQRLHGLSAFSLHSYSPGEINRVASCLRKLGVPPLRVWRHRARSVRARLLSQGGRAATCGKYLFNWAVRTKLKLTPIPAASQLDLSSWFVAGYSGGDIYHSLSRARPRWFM

As for `COC(=O)c1ccc2c(C3CCCCC3)c3n(c2c1)CC(c1nnc(CC2CCOCC2)o1)=Cc1ccccc1-3` [Example 39, 13-cyclohexyl-6-[5-[(tetrahydro-2H-pyran-4-yl)methyl]-1,3,4-oxadiazol-2-yl]-7H-indolo[2,1-a][2]benzazepine-10-carboxylic acid, methyl ester], the IC50 in experiment [1] is > 500 nM. Moreover, the concentration giving a half-maximal response (EC50) in experiment [2] was > 500 nM.
For the molecule `COC(=O)c1ccc2c(C3CCCCC3)c3n(c2c1)CC(c1n[nH]c(CC2CCOCC2)n1)=Cc1ccccc1-3` [Example 40, 13-cyclohexyl-6-[5-[(tetrahydro-2H-pyran-4-yl)methyl]-1H-1,2,4-triazol-3-yl]-7H-indolo[2,1-a][2]benzazepine-10-carboxylic acid, methyl ester], the concentration for half-maximal inhibition (IC50) in experiment [1] is > 500 nM. The half-maximal effective concentration (EC50) in experiment [2] is > 500 nM.
For the molecule `COC(=O)c1ccc2c(C3CCCCC3)c3n(c2c1)CC(c1nc(CC2CCOCC2)n(C)n1)=Cc1ccccc1-3` [Example 41, 13-cyclohexyl-6-[1-methyl-5-[(tetrahydro-2H-pyran-4-yl)methyl]-1H-1,2,4-triazol-3-yl]-7H-indolo[2,1-a][2]benzazepine-10-carboxylic acid, methyl ester], the half-inhibitory concentration (IC50) in experiment [1] is > 500 nM. Also, the half-maximal effective concentration (EC50) in experiment [2] was > 500 nM.
As to `Cn1nc(C2=Cc3ccccc3-c3c(C4CCCCC4)c4ccc(C(=O)O)cc4n3C2)nc1CC1CCOCC1` [Example 42, 13-cyclohexyl-6-[1-methyl-5-[(tetrahydro-2H-pyran-4-yl)methyl]-1H-1,2,4-triazol-3-yl]-7H-indolo[2,1-a][2]benzazepine-10-carboxylic acid], in experiment [1], the half-maximal inhibitory concentration (IC50) was > 500 nM. For the same molecule, the EC50 in experiment [2] is > 500 nM.
In experiment [1], `CN(C)S(=O)(=O)NC(=O)c1ccc2c(C3CCCCC3)c3n(c2c1)CC(c1nc(CC2CCOCC2)n(C)n1)=Cc1ccccc1-3` [Example 43, 13-cyclohexyl-N-[(dimethylamino)sulfonyl]-6-[1-methyl-5-[(tetrahydro-2H-pyran-4-yl)methyl]-1H-1,2,4-triazol-3-yl]-7H-indolo[2,1-a][2]benzazepine-10-carboxamide] returned an IC50 of 1 to 500 nM. The EC50 in experiment [2] is > 500 nM.
In experiment [1], `O=C(O)c1ccc2c(C3CCCCC3)c3n(c2c1)CC(c1nnc(CC2CCOCC2)o1)=Cc1ccccc1-3` [Example 44, 13-cyclohexyl-6-[5-[(tetrahydro-2H-pyran-4-yl)methyl]-1,3,4-oxadiazol-2-yl]-7H-indolo[2,1-a][2]benzazepine-10-carboxylic acid] returned an IC50 of 1 to 500 nM. Further, the concentration for a half-maximal effect (EC50) in experiment [2] was > 500 nM.
The like results for `O=C(O)c1ccc2c(C3CCCCC3)c3n(c2c1)CC(c1ccoc1)=Cc1ccccc1-3` [Example 45, 13-Cyclohexyl-6-(furan-3-yl)-7H-indolo{2,1-a][2]benzazepine-10-carboxylic Acid] were, in that order, 1 to 500 nM and > 500 nM.
The matching figures for `COC(=O)CCc1cnc(C2=Cc3cc(OC)ccc3-c3c(C4CCCCC4)c4ccc(C(=O)OC)cc4n3C2)o1` [Example 46, Methyl 13-cyclohexyl-3-methoxy-6-(5-(3-methoxy-3-oxopropyl)-1,3-oxazol-2-yl)-7H-indolo[2,1-a][2]benzazepine-10-carboxylate]: > 500 nM and > 500 nM.
The matching figures for `COC(=O)c1ccc2c(C3CCCCC3)c3n(c2c1)CC(c1ncc(CCC(=O)O)o1)=Cc1cc(OC)ccc1-3` [Example 47, 3-(2-(13-Cyclohexyl-3-methoxy-10-(methoxycarbonyl)-7H-indolo[2,1-a][2]benzazepin-6-yl)-1,3-oxazol-5-yl)propanoic acid]: 1 to 500 nM and > 500 nM.
For `COC(=O)c1ccc2c(C3CCCCC3)c3n(c2c1)CC(c1ncc(CCC(=O)N2CCOCC2)o1)=Cc1cc(OC)ccc1-3` [Example 48, Methyl 13-cyclohexyl-3-methoxy-6-(5-(3-(4-morpholinyl)-3-oxopropyl)-1,3-oxazol-2-yl)-7H-indolo[2,1-a][2]benzazepine-10-carboxylate], the 50% inhibitory concentration (IC50) in experiment [1] was > 500 nM. In addition, the half-maximal effective concentration (EC50) in experiment [2] is > 500 nM.
As to `COc1ccc2c(c1)C=C(c1ncco1)Cn1c-2c(C2CCCCC2)c2ccc(C(=O)O)cc21` [Example 56, 13-Cyclohexyl-3-methoxy-6-(1,3-oxazol-2-yl)-7H-indolo[2,1-a][2]benzazepine-10-carboxylic acid], the IC50 in experiment [1] lay within 1 to 500 nM. Moreover, in experiment [2], the EC50 was > 500 nM.
The like results for `COc1ccc2c(c1)C=C(c1ncco1)Cn1c-2c(C2CCCCC2)c2ccc(C(=O)NS(=O)(=O)N(C)C)cc21` [Example 57, 13-Cyclohexyl-N-((dimethylamino)sulfonyl)-3-methoxy-6-(1,3-oxazol-2-yl)-7H-indolo[2,1-a][2]benzazepine-10-carboxamide] were, in that order, 1 to 500 nM and 1 to 500 nM.
The matching figures for `COc1ccc2c(c1)CC(c1ncco1)Cn1c-2c(C2CCCCC2)c2ccc(C(=O)NS(=O)(=O)N(C)C)cc21` (centres unmarked) [Example 58, 13-Cyclohexyl-N-((dimethylamino)sulfonyl)-3-methoxy-6-(1,3-oxazol-2-yl)-6,7-dihydro-5H-indolo[2,1-a][2]benzazepine-10-carboxamide]: 1 to 500 nM and 1 to 500 nM.

For orientation: IC50 means the concentration at which inhibition is half-maximal. High values mean a need for much substance, low ones inhibition by little substance. For orientation: EC50 means the midpoint of the concentration-response curve. High values mean weaker potency, low ones greater potency.
